Read-outs that look alike come from different tables or passages of the source.
Columns and labels:
[1] = tested on: NCI-N87; assay: In vitro cytotoxicity test of camptothecin payloads (CellTiter-Glo); assay type: cell-based; settings: Homo sapiens, NCI-N87, 72 h, read-out: NCI-N87 Cytotoxicity IC50 (nM)
Procedure: (§1) Human lung adenocarcinoma cell line A549, NCI-N87, and SK-BR-3 were used to evaluate the cytotoxicity of small molecule fragment of the present invention. These cells were seeded to a 96-well plate at 2000 cells per well.

[2] = tested on: A549; assay: as above; assay type: cell-based; settings: Homo sapiens, A549, 72 h
Procedure: as §1

[3] = tested on: SK-BR-3; assay: as above; assay type: cell-based; settings: Homo sapiens, SK-BR-3, 72 h, read-out: SK-BR-3 Cytotoxicity IC50 (nM)
Procedure: as §1

[4] = Rat PK study; assay type: in vivo; settings: Sprague-Dawley (SD)
Procedure: Male SD rat, 180-200 g (BK lab. Animal Ltd.), 3 Rats/group. Blood samples were collected by orbital vein after IV administration 1 mg/kg dosage at 0.083, 0.5, 1, 2, 4, and 8 h into heparin-containing tubes, centrifugated at 10000 rpm for 3 min to get plasma. All samples were stored at −20° C. until they were sent to Suzhou Chengyao Biotech Co., Ltd. for analysis.

[5] = read-out: A549 Cytotoxicity IC50 (nM)
[6] = male, rat, in vivo, iv, 1 mg/kg

| SMILES | IC50 [1] [nM] | IC50 [2, 5] [nM] | IC50 [3] [nM] | other results |
| --- | --- | --- | --- | --- |
| CC[C@@]1(O)C(=O)OCc2c1cc1n(c2=O)Cc2c-1nc1ccc(NC(=O)CO)c3c1c2C=CS3 [Example 13] | 21.7 | 26.4 | 52.3 | – |
| CC[C@@]1(O)C(=O)OCc2c1cc1n(c2=O)Cc2c-1nc1cc(F)c(N)c3c1c2C=CS3 [Example 2, (S)-4-amino-9-ethyl-5-fluoro-9-hydroxy-12,15-dihydro-13H-pyrano[3′,4′:6,7]indolizino[1,2-b]thiopyrano[4,3,2-de]quinoline-10,13(9H)-dione] | – | 0.8 | – | – |
| CC[C@@]1(O)C(=O)OCc2c1cc1n(c2=O)Cc2c-1nc1cc(F)c(C)c3c1c2[C@@H](NC(=O)CO)CC3 [drawing 111] | – | – | – | MRT inf ([4]; in vivo, male SD rat, IV 1 mg/kg, plasma, read-out: MRT0-∞): 30 min; half-life ([4]; in vivo, male SD rat, IV 1 mg/kg, plasma, read-out: T1/2 (converted)): 30 min; Vd ([4]; in vivo, male SD rat, IV 1 mg/kg, plasma, read-out: Vss): 20.6 L/kg |
| CC[C@@]1(O)C(=O)OCc2c1cc1n(c2=O)Cc2c-1nc1ccc(N)c3c1c2C=CS3 [Example 1, (S)-4-amino-9-ethyl-9-hydroxy-12,15-dihydro-13H-pyrano[3′,4′:6,7]indolizino[1,2-b]thiopyrano[4,3,2-de]quinoline-10,13(9H)-dione] | 5.2 | 10.7 | 38.6 | MRT inf [4, 6]: 12 min; Vd [4, 6]: 0.9 L/kg; half-life [4, 6]: 18 min |
| CC[C@@]1(O)C(=O)OCc2c1cc1n(c2=O)Cc2c-1nc1ccc(N)c3c1c2CCS3 [drawing 110] | – | – | – | IC50 ([2]; cell viability after 3 days, 2000 cells per well, read-out: A549 Cytotoxicity IC50): 22.3 nM |
| CC[C@@]1(O)C(=O)OCc2c1cc1n(c2=O)Cc2c-1nc1cc(F)c(C)c3c1c2[C@@H](NC(=O)CO)CC3 [drawing 109] | 26 | 163 | 802 | – |
| CC[C@@]1(O)C(=O)OCc2c1cc1n(c2=O)Cc2c-1nc1ccc(N)c3c1c2CCS3 [drawing 112] | – | – | – | MRT inf ([4]; male SD rat, IV 1 mg/kg, plasma, read-out: MRT0-∞): 114 min; half-life ([4]; male SD rat, IV 1 mg/kg, plasma, read-out: T1/2 (converted)): 126 min; Vd ([4]; male SD rat, IV 1 mg/kg, plasma, read-out: Vss): 7.2 L/kg |

— patent US20240382608A1, “NOVEL LIGAND-DRUG CONJUGATE OF CAMPTOTHECIN ANALOGS, INTERMEDIATES, PHARMACEUTICAL COMPOSITION AND APPLICATION THEREOF” (SHANGHAI MICURX PHARMACEUTICAL CO., LTD., priority 2023, published 2024)
